# Results published in patent EP0148440A1, “1,3,4,5-Tetrahydrobenzo(c,d)indoles, process for their preparation and their uses” (Troponwerke GmbH & Co. KG, priority 1983, dated 1985).
# pKi: −log10 of the molar value.
# Target: T1, 5-HT2 (Rattus norvegicus, UniProt P14842)
# T1 construct: Präfrontaler Cortex-Ratte; from tissue; host or cells: rat prefrontal cortex membranes
# Test: Affinity to serotonin receptors: 5-HT2, displacement of ^3H-Ketanserin
# Format: binding
# Settings: Präfrontaler Cortex-Ratte membranes, read-out: Inhibitionskonstante Ki
# T1 sequence (P14842 whole entry): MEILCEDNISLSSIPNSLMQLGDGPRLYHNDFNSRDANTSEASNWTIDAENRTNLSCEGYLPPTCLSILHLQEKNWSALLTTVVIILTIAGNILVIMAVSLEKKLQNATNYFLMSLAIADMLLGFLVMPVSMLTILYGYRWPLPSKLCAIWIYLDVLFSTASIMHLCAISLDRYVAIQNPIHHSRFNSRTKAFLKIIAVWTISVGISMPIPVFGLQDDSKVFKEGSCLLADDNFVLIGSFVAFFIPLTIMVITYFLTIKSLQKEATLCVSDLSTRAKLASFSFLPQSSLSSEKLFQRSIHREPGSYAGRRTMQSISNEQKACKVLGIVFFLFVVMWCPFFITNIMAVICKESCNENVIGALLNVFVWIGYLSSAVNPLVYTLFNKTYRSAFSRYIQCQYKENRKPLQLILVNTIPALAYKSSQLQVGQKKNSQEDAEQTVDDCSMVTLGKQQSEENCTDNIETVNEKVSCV
compound,measurement,value
"CCCN(CCC)C1Cc2c[nH]c3ccc(OC)c(c23)C1 (stereo not shown) [Beispiel 1, 6-Methoxy-4-dipropylamino-1,3,4,5-tetrahydrobenz[c,d]-indol]",pKi,5.74
